Assay results as given in patent US4803221A, “Anthracene derivatives” (priority 1987, dated 1989).
Structures can show the parent of a compound that is named as a salt.

Columns and labels:
[1] = Lymphocytic Leukemia P388/0 Test; format: in vivo, mouse (CD2-F1); set-up: LD20: unit: mg/kg; settings: mouse, in vivo; ip days 1, 5, 9; doses on a mg/kg basis; read-out: highest nontoxic dose where the LD20 was not determined (values in parentheses in LD20 column)
Source text: (§1) Methods for evaluating the antitumor activity of these compounds are essentially those used in the Tumor Panel by the Developmental Therapeutics Program, Division of Cancer Treatment, National Cancer Institute, A. Goldin, et al., Methods in Cancer Research, Vol. XVI, p.165, Academic Press (1979). Some modifications, in dose level and schedule have been made to increase the testing efficiency.
(§2) CD2-F1 mice, of the same sex, weighing 20±3 g are used for this test. Control and test animals are injected intraperitoneally with a suspension of ~10^6 viable P388/0 tumor cells on day 0. In each test, several dose levels which bracket the LD20 of the compound are evaluated; each dose level group contains six animals. The test compounds are prepared either in physiologic saline containing 0.05% Tween 80 or distilled water containing 5% dextrose and are administered intraperitoneally on days 1, 5, and 9 relative to tumor implant. Doses are on a mg/kg basis according to individual animals' body weights. The day of death for each animal is recorded, the median identified for each group and the ratios of median survival time for treated (T)/control (C) Groups are calculated. The criterion for activity is T/C×100≥120%.

[2] = system: lymphocytic leukemia P388/0; test: Lymphocytic Leukemia P388/0 Test; format: in vivo, mouse (CD2-F1); set-up: LD20: unit: mg/kg; settings: ip days 1, 5, 9; for T/C × 100% (Excluding 30 Day Survivors): median survival time treated/control, at the optimal dose of the compound (Table I), active if ≥120%; for LD20: doses on a mg/kg basis
Source text: as §1, §2

| SMILES | MTD [1] | T/C × 100% (Excluding 30 Day Survivors) [2] | LD20 [2] |
| --- | --- | --- | --- |
| CC(CO)(CO)NCc1c2ccccc2c(Cl)c2cc(Cl)ccc12.Cl [Example 23, 2-(((3,10-dichloro-9-anthracenyl)methyl)amino)-2-methyl-1,3-propanediol hydrochloride] | 300 mg/kg | +210% | – |
| Cl.OCC(CO)(CO)NCc1c2ccccc2c(Cl)c2ccccc12 [Example 21, 2-(((10-Chloro-9-anthracenyl)methyl)amino)-2-hydroxymethyl-1,3-propanediol hydrochloride] | – | +140% | 440 |
| CC(CO)(CO)NCc1cccc2c(Cl)c3ccccc3cc12 [Example 37E, 2-(((10-Chloro-1-anthracenyl)methyl)amino)-2-methyl-1,3-propanediol methanesulfonate.9/20 H2 O] | – | +145% | 140 |
| CC(CO)(CO)NCc1c2ccccc2c(Br)c2ccccc12.Cl [Example 8B, 2-(((10-Bromo-9-anthracenyl)methyl)amino)-2-methyl-1,3-propanediol hydrochloride] | 450 mg/kg | +200% | – |
| CC(CO)(CO)NCc1c2ccccc2c(CCCl)c2ccccc12.Cl [Example 4B, 2-(((10-(2-chloroethyl)-9-anthracenyl)methyl)amino)-2-methyl-1,3-propanediol hydrochloride] | 300 mg/kg | +225% | – |
| CC(CO)(CO)NCc1c2ccccc2c(N2CCOCC2)c2ccccc12 [Example 28B, 2-Methyl-2-((((10-N-morpholino)-9-anthracenyl)methyl)amino)-1,3-propanediol methanesulfonate.3/4H2 O] | – | +235% | 225 |
| CC(CO)(CO)NCc1c2ccccc2c(SCCO)c2ccccc12.Cl [Example 20B, 2-(((10-(2-hydroxyethylthio)-9-anthracenyl)methyl)amino)-2-methyl-1,3-propanediol hydrochloride] | – | +145% | 440 |
| CC(CO)(CO)NCc1c2ccccc2c(Cl)c2ccc(C(C)(C)C)cc12.Cl [Example 41C, 2-(((2-tert-butyl-10-chloro-9-anthracenyl)methyl)amino)-2-methyl-1,3-propanediol hydrochloride.1/4H2 O] | – | +125% | – |
| CC(CO)(CO)NCc1c2ccccc2c(Cl)c2ccc(Cl)cc12.Cl [Example 22C, 2-(((2,10-dichloro-9-anthracenyl)methyl)amino)-2-methyl-1,3-propanediol hydrochloride] | 400 mg/kg | +200% | – |
| C[S+]([O-])c1c2ccccc2c(CNC(C)(CO)CO)c2ccccc12.Cl (stereo not drawn) [Example 12B, 2-Methyl-2-(((10-methylsulfinyl-9-anthracenyl)methyl)amino)-1,3-propanediol hydrochloride] | – | +220% | 55 |
| CC(CO)(CO)NCc1c2ccccc2c(S(C)(=O)=O)c2ccccc12.Cl [Example 26B, 2-Methyl-2-(((10-methylsulfonyl-9-anthracenyl)methyl)amino)-1,3-propanediol hydrochloride] | 300 mg/kg | +228% | – |
| CC(CO)(CO)NCc1c2ccccc2c(Cl)c2c(Cl)cccc12.Cl [Example 5C, 2-(((4,10-dichloro-9-anthracenyl)methyl)amino)-2-methyl-1,3-propanediol hydrochloride] | 300 mg/kg | +204% | – |
| CC(CO)(CO)NCc1cccc2c(Br)c3ccccc3cc12.Cl [Example 16C, 2-(((10-Bromo-1-anthracenyl)methyl)amino)-2-methyl-1,3-propanediol hydrochloride] | 300 mg/kg | +225% | – |
| CCCCc1c2ccccc2c(CNC(C)(CO)CO)c2ccccc12.Cl [Example 45B, 2-(((10-Butyl-9-anthracenyl)methyl)amino)-2-methyl-1,3-propanediol hydrochloride] | – | +170% | 212 |
| COCCOc1c2ccccc2c(CNC(C)(CO)CO)c2ccccc12 [Example 27B, 2-(((10-(2-Methoxyethoxy)-9-anthracenyl)methyl)amino)-2-methyl-1,3-propanediol hydrochloride 1/4H2 O] | – | +260% | 180 |
| CC(CO)(CO)NCc1c2ccccc2cc2ccc(Cl)cc12.Cl [Example 17C, 2-(((2-Chloro-9-anthracenyl)methyl)amino)-2-methyl-1,3-propanediol hydrochloride] | – | +170% | 150 |
| CCSc1c2ccccc2c(CNC(C)(CO)CO)c2ccccc12.Cl [Example 19B, 2-(((10-ethylthio-9-anthracenyl)methyl)amino)-2-methyl-1,3-propanediol hydrochloride] | – | +145% | 625 |
| C[C@H](O)[C@@](C)(CO)NCc1c2ccccc2cc2ccccc12 (relative stereo) [Example 30G, (+-)(2R*,3S*)-2-((9-Anthracenylmethyl)amino)-2-methyl-1,3-butanediol hydrochloride 1/4H2 O] | – | +136% | 180 |
| Cc1cc2c(Cl)c3ccccc3c(CNC(C)(CO)CO)c2cc1C.Cl [Example 40B, 2-(((10-Chloro-2,3-dimethyl-9-anthracenyl)methyl)amino)-2-methyl-1,3-propanediol hydrochloride] | 300 mg/kg | +205% | – |
| CC(CO)(CO)NCc1c2ccccc2c(CO)c2ccccc12 [Example 6, 2-(((10-Hydroxymethyl-9-anthracenyl)methyl)amino)-2-methyl-1,3-propanediol hydrochloride 1/4H2 O] | – | +170% | 180 |
| CC(CO)(CO)NCc1cccc2cc3ccccc3cc12 [Example 15E, 2-((1-Anthracenylmethyl)amino)-2-methyl-1,3-propanediol hydrochloride] | – | +204% | 7 |
| CCOc1c2ccccc2c(CNC(C)(CO)CO)c2ccccc12.Cl [Example 24B, 2-(((10-Ethoxy-9-anthracenyl)methyl)amino)-2-methyl-1,3-propanediol hydrochloride] | – | +218% | 96 |
| CC(CO)(CCO)NCc1c2ccccc2cc2ccccc12.CS(=O)(=O)O (stereo not drawn) [Example 36G, 2-((9-anthracenylmethyl)amino)-2-methyl-1,4-butanediol methanesulfonate] | – | +125% | 120 |
| CCCCOc1c2ccccc2c(CNC(C)(CO)CO)c2ccccc12.Cl [Example 44F, 2-(((10-Butoxy-9-anthracenyl)methyl)amino)-2-methyl-1,3-propanediol hydrochloride] | – | +120% | 120 |
| CC(CO)(CO)NCc1c2ccccc2c(C#N)c2ccccc12.Cl [Example 14B, 10-((1,1-Bis(hydroxymethyl)ethylamino)methyl)-9-anthracenecarbonitrile hydrochloride] | – | +190% | 387 |
| CC(C)C(CO)(CO)NCc1c2ccccc2cc2ccccc12 [Example 35C, 2-((9-Anthracenylmethyl)amino)-2-isopropyl-1,3-propanediol methanesulfonate] | – | +150% | 450 |
